Several values for one entry are separate records, joined by “and”; a condition that tells them apart may be missing. Equal entries are not always repeated. Where two headings read alike, the source gives them in different places.
Assays:
[1] = tested on: MCF-7; experiment: cells; type: cell-based, human
Experimental: (§1) Biological evaluation of the compounds […]
(§2) serial dilutions of the test compound were given to 120 µL of suspended cells (50.000/mL) in wells of 96-well plates. After 5 days of incubation growth inhibition (IC50) was determined using an MTT assay.9
(§3) Table S1:Medium conditions for different cell types.
(§4) Cell type Medium Additives
(§5) L-929 (DSMZ ACC 2) DME medium (high glucose) (Gibco) 10% fetal calf serum (Gibco) SKOV-3 DSMZ ATCC HTB Mc Coys-Medium (Gibco) 10% fetal calf serum (Gibco) […]
(§6) A549 (DSMZ ACC 107) DME medium (high glucose) (Gibco) 10% fetal calf serum (Gibco)

[2] = tested on: A-549; experiment: cells; type: cell-based, human
Experimental: as §1, §2, §3, §4, §5, §6

[3] = tested on: SK-OV-3; experiment: cells; type: cell-based, human; conditions: Homo sapiens, SK-OV-3, read-out: Antiproliferative activity IC50
Experimental: as §1, §2, §3, §4, §5, §6

[4] = tested on: KB-3.1; experiment: cells; type: cell-based, human
Experimental: as §1, §2, §3, §4, §5, §6

[5] = molecular target: CRM1 (Homo sapiens, UniProt O14980); experiment: Nuclear export inhibition, fluorescent translocation biosensor in recombinant HeLa cells; type: cell-based; set-up: This cellular assay uses HeLa cells that express a recombinant fusion protein; endogenous in cells; host or cells: HeLa cells stably expressing the NLS-GST-GFP-RevNES translocation biosensor (HeLaRevBio); conditions: nuclear export inhibition IC50, HeLa cells expressing translocation biosensor, 1 h incubation
[6] = tested on: L-929; experiment: Cell proliferation assay (MTT, 5 days); type: cell-based, murine
Experimental: as §1, §2, §3, §4, §5
A549 (DSMZ ACC 107) DME medium (high glucose) (Gibco) 10% fetal calf serum (Gibco) KB 3.1 (DSMZ ACC 158) DME medium (high glucose) (Gibco) 10% fetal calf serum (Gibco) Ratjadone Compound Antiproliferative activity IC50 [nM]
KB-3.1: human cervix carcinoma, KB-V1: multi-drug-resistant human cervix carcinoma, K-562: human chronic myelogenous leukemia cell, PC-3: human prostate carcinoma, L-929: murine fibroblast
Figure S8: Structures of Ratjadone A-D and their antiproliferative activity (IC50 values in nM). Data published by Köster et al.10

[7] = tested on: KB-3.1 cancer cells; experiment: Cell proliferation assay under folate free conditions (MTT); type: cell-based, human; conditions: KB-3.1, folate receptor-positive, read-out: Antiproliferative activity IC50 of folate-ratjadone conjugates
Experimental: Cell proliferation assay under folate free conditions
KB 3.1 (DSMZ ACC 158) cells were cultivated at 37 °C and 10 % CO2 in RMPI-medium without folic acid (Gibco) with 10% fetal calf serum (Gibco). 120 µL of suspended cells (100.000/mL) were seeded in wells of 96-well plates and after 24 h at 37 °C and 10 % CO2 the medium was removed, the cells were washed with PBS and RPMI-medium without folic acid (Gibco) + 10% dialyzed fetal calf serum (Sigma) were added to the cells, before after additional 24 h at 37°C and 10 % CO2 60 µL of serial dilutions of the test compound were given to cells. After 1, 2 and 5 days of incubation growth inhibition (IC50) was determined using an […]

[8] = Homo sapiens, MCF7, read-out: Antiproliferative activity IC50, MCF-7 human breast carcinoma
[9] = Homo sapiens, A549, read-out: Antiproliferative activity IC50, A-549 human lung carcinoma
[10] = Homo sapiens, KB 3-1, read-out: Antiproliferative activity IC50, KB-3.1 human cervix carcinoma
[11] = Mus musculus, L929, read-out: Antiproliferative activity IC50, L-929 murine fibroblast
[12] = read-out: Antiproliferative activity IC50, L-929 murine fibroblast
[13] = KB 3-1, KB-3.1 human cervix carcinoma, read-out: Antiproliferative activity IC50
[14] = L-929 murine fibroblast, read-out: Antiproliferative activity IC50
[15] = Mus musculus, L929, L-929 murine fibroblast, read-out: Antiproliferative activity IC50

Chain of CRM1 (O14980 whole entry, the tested form may be a part): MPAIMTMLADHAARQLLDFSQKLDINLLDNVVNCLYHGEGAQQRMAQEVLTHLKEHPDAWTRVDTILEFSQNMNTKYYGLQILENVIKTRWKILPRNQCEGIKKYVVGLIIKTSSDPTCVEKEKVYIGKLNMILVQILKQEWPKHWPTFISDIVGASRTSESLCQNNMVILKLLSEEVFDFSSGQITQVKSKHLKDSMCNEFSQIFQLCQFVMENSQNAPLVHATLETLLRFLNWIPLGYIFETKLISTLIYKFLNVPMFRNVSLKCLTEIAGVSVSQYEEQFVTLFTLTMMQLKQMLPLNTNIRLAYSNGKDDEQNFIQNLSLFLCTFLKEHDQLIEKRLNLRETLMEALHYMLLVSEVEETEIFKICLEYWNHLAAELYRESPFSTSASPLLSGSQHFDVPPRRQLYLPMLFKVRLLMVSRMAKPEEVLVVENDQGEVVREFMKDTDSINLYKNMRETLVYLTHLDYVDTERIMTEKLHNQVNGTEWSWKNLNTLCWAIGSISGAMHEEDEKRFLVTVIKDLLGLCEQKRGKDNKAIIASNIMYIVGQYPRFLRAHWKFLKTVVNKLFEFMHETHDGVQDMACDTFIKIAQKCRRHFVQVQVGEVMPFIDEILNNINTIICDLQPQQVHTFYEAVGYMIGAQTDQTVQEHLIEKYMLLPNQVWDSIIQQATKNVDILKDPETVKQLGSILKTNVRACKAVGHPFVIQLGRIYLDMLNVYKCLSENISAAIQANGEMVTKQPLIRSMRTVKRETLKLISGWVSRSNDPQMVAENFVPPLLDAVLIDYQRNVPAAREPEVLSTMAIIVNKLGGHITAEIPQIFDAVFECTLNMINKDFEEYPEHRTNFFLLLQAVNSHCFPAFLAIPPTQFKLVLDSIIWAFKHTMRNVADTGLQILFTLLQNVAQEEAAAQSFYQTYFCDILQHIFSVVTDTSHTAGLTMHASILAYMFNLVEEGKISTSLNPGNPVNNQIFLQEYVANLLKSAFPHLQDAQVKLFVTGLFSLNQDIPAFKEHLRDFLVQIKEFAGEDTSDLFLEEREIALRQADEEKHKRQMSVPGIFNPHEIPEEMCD

| SMILES | IC50 [1, 8] [nM] | IC50 [2, 9] [nM] | IC50 [3] [nM] | IC50 [4, 10] [nM] | IC50 [5] | also measured |
| --- | --- | --- | --- | --- | --- | --- |
| C/C=C/[C@@H]1O[C@H](C(=O)/C=C/C=C(\C)C[C@@H](C)/C=C(C)\C=C\[C@H]2CC=CC(=O)O2)C[C@@H](O)[C@@H]1C [Compound 13, 16-oxoratjadone] | 0.22 | 1.76 | 0.24 | 2.57 | 52.5 nM | IC50 [6, 11]: 12.6 nM; IC50 [6, 12]: 12.6 nM |
| C/C=C/[C@@H]1O[C@H]([C@H](O)/C=C/C=C(\C)C[C@@H](C)/C=C(C)\C=C\[C@H]2CC=CC(=O)O2)CC(=O)[C@@H]1C [Compound 14, 19-oxoratjadone] | 0.48 | 0.1 | 0.16 | 0.36 | 13.3 nM | IC50 [6, 11]: 1.15 nM |
| C/C=C/[C@@H]1O[C@H](C(=O)/C=C/C=C(\C)C[C@@H](C)/C=C(C)\C=C\[C@H]2CC=CC(=O)O2)CC(=O)[C@@H]1C [Compound 15, 16,19-dioxoratjadone] | 2.87 | 9.72 | 1.59 | 3.98 | 17.5 nM | IC50 [6, 11]: 24.3 nM |
| C/C=C/[C@@H]1O[C@H]([C@H](N)/C=C/C=C(\C)C[C@@H](C)/C=C(C)\C=C\[C@H]2CC=CC(=O)O2)C[C@@H](O)[C@@H]1C [Compound 16, 16R-aminoratjadone] | 0.26 | 0.31 | 0.61 | 0.39 | 2.7 nM | IC50 [6, 11]: 4.61 nM |
| C/C=C/[C@@H]1O[C@H]([C@@H](N)/C=C/C=C(\C)C[C@@H](C)/C=C(C)\C=C\[C@H]2CC=CC(=O)O2)C[C@@H](O)[C@@H]1C [Compound 17, 16S-aminoratjadone] | 0.36 | 1.31 | 0.81 | 1.59 | 2.8 nM | IC50 [6, 11]: 28.4 nM; IC50 [6, 12]: 28.4 nM |
| C/C=C/[C@@H]1O[C@H]([C@H](N)/C=C/C=C(\C)C[C@@H](C)/C=C(C)\C=C\[C@H](O)CC(N)CC(=O)OC)C[C@@H](O)[C@@H]1C (stereo partly shown) [Compound 18] | – | – | – | – | – | IC50 [4, 13]: 116 nM; IC50 [6, 14]: 3310 nM; IC50 [6, 15]: 3310 nM |
| C/C=C/[C@@H]1O[C@H]([C@@H](N)/C=C/C=C(\C)C[C@@H](C)/C=C(C)\C=C\[C@H](O)CC(N)CC(=O)OC)C[C@@H](O)[C@@H]1C (stereo partly shown) [Compound 19] | – | – | – | – | – | IC50 [4, 13]: 165 nM; IC50 [6, 14]: 1320 nM; IC50 [6, 15]: 1320 nM |
| C#CCCC(=O)N[C@H](/C=C/C=C(\C)C[C@@H](C)/C=C(C)\C=C\[C@H]1CC=CC(=O)O1)[C@@H]1C[C@@H](O)[C@H](C)[C@H](/C=C/C)O1 [Compound 20] | 0.4 | 0.58 | 0.44 | 1.05 | 23.2 nM | – |
| C#CCCOC(=O)N[C@@H](/C=C/C=C(\C)C[C@@H](C)/C=C(C)\C=C\[C@H]1CC=CC(=O)O1)[C@@H]1C[C@@H](O)[C@H](C)[C@H](/C=C/C)O1 [Compound 22] | 0.62 | 2.45 | 1.2 | 1.23 | 12 nM | – |
| CC=CC1OC(C(C=CC=C(C)CC(C)C=C(C)C=CC2CC=CC(=O)O2)NC(=O)OCc2ccc(NC(=O)C(CCCNC(N)=O)NC(=O)C(NC(=O)OCC3C4CCC#CCCC43)C(C)C)cc2)CC(O)C1C (stereo not drawn) [Compound 25, BCN-O(CO)HN-Val-Cit-pABO(CO)-16R-Aminoratjadone] | 20.2 | 39.5 | 34.7 | 25.1 | 246 nM and 346 nM | IC50 ([1]; read-out: Antiproliferative activity IC50, MCF-7 human breast carcinoma): 20.2 nM; IC50 ([2]; read-out: Antiproliferative activity IC50, A-549 human lung carcinoma): 39.5 nM; IC50 ([4]; read-out: Antiproliferative activity IC50, KB-3.1 human cervix carcinoma): 25.1 nM |
| C/C=C/[C@@H]1O[C@H]([C@@H](/C=C/C=C(\C)C[C@@H](C)/C=C(C)\C=C\[C@H]2CC=CC(=O)O2)NC(=O)CCSSc2ccccn2)C[C@@H](O)[C@@H]1C [Compound 31, 2-PySS(CH2)2(CO)-16R-Aminoratjadone] | 26 | 30.6 | 24.6 | 8.8 | 44.1 nM | – |
| C/C=C/[C@@H]1O[C@H]([C@H](O)/C=C/C=C(\C)C[C@@H](C)/C=C(C)\C=C\[C@H]2CC=CC(=O)O2)CC(N)[C@@H]1C (stereo partly shown) [Compound 33, 19-aminoratjadone] | 2.1 | 4.39 | 1.4 | 6.67 | 70 nM | – |
| C#CCNC1C[C@@H]([C@H](O)/C=C/C=C(\C)C[C@@H](C)/C=C(C)\C=C\[C@H]2CC=CC(=O)O2)O[C@@H](/C=C/C)[C@H]1C (stereo partly shown) [Compound 35, N-Propargyl-19-aminoratjadone] | 1.31 | 1.12 | 2.63 | 1.23 | 18.3 nM | – |
| C/C=C/[C@@H]1O[C@H]([C@@H](/C=C/C=C(\C)C[C@@H](C)/C=C(C)\C=C\[C@H]2CC=CC(=O)O2)NC(=O)OCc2ccc(NC(=O)[C@H](CCCNC(N)=O)NC(=O)[C@@H](NC(=O)OC[C@@H]3[C@@H]4CCc5nnn(CCC[C@H](NC(=O)CC[C@H](NC(=O)c6ccc(NCc7cnc8nc(N)nc(O)c8n7)cc6)C(=O)O)C(=O)N[C@H](CCCCN)C(=O)O)c5CC[C@@H]43)C(C)C)cc2)C[C@@H](O)[C@@H]1C [FA-9-Val-Cit-pABA-16R-aminoratjadone] | – | – | – | – | – | IC50 [7]: 50.9 nM |
| C/C=C/[C@@H]1O[C@H]([C@@H](/C=C/C=C(\C)C[C@@H](C)/C=C(C)\C=C\[C@H]2CC=CC(=O)O2)NC(=O)OCc2ccc(NC(=O)[C@H](CCCNC(N)=O)NC(=O)[C@@H](NC(=O)OCC3C4CCc5nnn(CCC[C@H](NC(=O)[C@@H](CC(=O)O)NC(=O)[C@@H](CC(=O)O)NC(=O)[C@@H](CC(=O)O)NC(=O)CC[C@H](NC(=O)c6ccc(NCc7cnc8nc(N)nc(O)c8n7)cc6)C(=O)O)C(=O)N[C@H](CC(=O)O)C(=O)N[C@H](CC(=O)O)C(=O)N[C@H](CCCCN)C(=O)O)c5CCC43)C(C)C)cc2)C[C@@H](O)[C@@H]1C (stereo partly drawn) [FA-10-Val-Cit-pABA-16R-aminoratjadone] | – | – | – | – | – | IC50 [7]: 35.3 nM |
| C/C=C/[C@@H]1O[C@H]([C@@H](/C=C/C=C(\C)C[C@@H](C)/C=C(C)\C=C\[C@H]2CC=CC(=O)O2)NC(=O)OCc2ccc(NC(=O)[C@H](CCCNC(N)=O)NC(=O)[C@@H](NC(=O)OCC3C4CCc5nnn(CCC[C@H](NC(=O)[C@@H](CC(=O)O)NC(=O)[C@@H](CC(=O)O)NC(=O)[C@H](CCCn6nnc7c6CCC6C(CC7)C6COC(=O)N[C@H](C(=O)N[C@@H](CCCNC(N)=O)C(=O)Nc6ccc(COC(=O)N[C@H](/C=C/C=C(\C)C[C@@H](C)/C=C(C)\C=C\[C@H]7CC=CC(=O)O7)[C@@H]7C[C@@H](O)[C@H](C)[C@H](/C=C/C)O7)cc6)C(C)C)NC(=O)[C@@H](CC(=O)O)NC(=O)[C@@H](CC(=O)O)NC(=O)[C@H](CCCn6nnc7c6CCC6C(CC7)C6COC(=O)N[C@H](C(=O)N[C@@H](CCCNC(N)=O)C(=O)Nc6ccc(COC(=O)N[C@H](/C=C/C=C(\C)C[C@@H](C)/C=C(C)\C=C\[C@H]7CC=CC(=O)O7)[C@@H]7C[C@@H](O)[C@H](C)[C@H](/C=C/C)O7)cc6)C(C)C)NC(=O)[C@@H](CC(=O)O)NC(=O)[C@@H](CC(=O)O)NC(=O)CC[C@H](NC(=O)c6ccc(NCc7cnc8nc(N)nc(O)c8n7)cc6)C(=O)O)C(=O)O)c5CCC43)C(C)C)cc2)C[C@@H](O)[C@@H]1C (stereo partly drawn) [FA-11-(Val-Cit-pABA-16R-aminoratjadone)3] | – | – | – | – | – | IC50 [7]: 45 nM |
| C/C=C/[C@@H]1O[C@H]([C@@H](/C=C/C=C(\C)C[C@@H](C)/C=C(C)\C=C\[C@H]2CC=CC(=O)O2)NC(=O)CCSSC[C@H](NC(=O)CC[C@H](NC(=O)c2ccc(NCc3cnc4nc(N)nc(O)c4n3)cc2)C(=O)O)C(=O)O)C[C@@H](O)[C@@H]1C [FA-SS-16R-aminoratjadone] | – | – | – | – | – | IC50 ([7]; listed as FA-SS-16R-Aminoratjadone): 295 nM; IC50 [7]: 295 nM |
